Drawing on patent publication US20240343704A1, “HALO-SUBSTITUTED AMINO PYRIDINE COMPOUNDS AS INHIBITORS OF THE HAEMATOPOIETIC PROGENITOR KINASE 1 (HPK1)” (priority 2021, published 2024), this text covers IC50 for 21 compounds.

The IC50 is the concentration that inhibits the measured activity by half.

In this assay the target is T1, Recombinant (1-346) HPK1 (h) (Homo sapiens, UniProt Q92918).
T1 construct: Recombinant (1-346) HPK1 (h) is incubated with 8 mM MOPS pH 7.0
T1 sequence (Q92918 1-346): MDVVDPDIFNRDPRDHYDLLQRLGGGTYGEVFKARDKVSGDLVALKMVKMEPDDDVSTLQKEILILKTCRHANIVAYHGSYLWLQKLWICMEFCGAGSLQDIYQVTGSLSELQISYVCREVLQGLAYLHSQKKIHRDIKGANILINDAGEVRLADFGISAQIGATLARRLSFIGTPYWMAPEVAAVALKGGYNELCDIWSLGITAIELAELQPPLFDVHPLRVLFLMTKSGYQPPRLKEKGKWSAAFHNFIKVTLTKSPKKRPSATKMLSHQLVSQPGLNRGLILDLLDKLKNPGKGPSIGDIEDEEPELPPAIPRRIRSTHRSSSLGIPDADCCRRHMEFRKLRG
Put plainly: HPK1 Human STE Kinase Enzymatic Radiometric Assay. In kind it is biochemical. The settings on record: read-out: HPK1 IC50 nM Range*. Here is the method:
A stock solution of 10 mM of test compound is prepared in DMSO. The compound plate was prepared by 3-fold and 9-point serial dilutions. […] The reaction is initiated by The addition of the Mg/ATP mix. After incubation for 40 minutes at RT, the reaction is stopped by the addition of phosphoric acid to a concentration of 0.5%.
Consider `Cc1nc2cc(-c3cc(-c4ccc(N5CCOCC5)c(CN(C)C)c4)c(F)nc3N)cc(F)c2c(=O)[nH]1` [I-475, 7-(2-amino-5-(3-((dimethylamino)methyl)-4-morpholinophenyl)-6-fluoropyridin-3-yl)-5-fluoro-2-methylquinazolin-4(3H)-one], for which the IC50 fell in the range of 11 to 100 nM.

On to `CN(C)Cc1cc(-c2cc(-c3ccc4c(c3)CCNC4=O)c(N)nc2F)ccc1N1CCN(C2CCC2)CC1` [I-461, 6-(2-amino-5-(4-(4-cyclobutylpiperazin-1-yl)-3-((dimethylamino)methyl)phenyl)-6-fluoropyridin-3-yl)-3,4-dihydroisoquinolin-1(2H)-one], for which the IC50 lay within 0.1 to 10 nM.

With `COc1ccc(-c2cc(-c3ccc4c(c3)CCNC4=O)c(N)nc2F)cc1CO` [I-536, 6-(2-amino-6-fluoro-5-(3-(hydroxymethyl)-4-methoxyphenyl)pyridin-3-yl)-3,4-dihydroisoquinolin-1(2H)-one], the IC50 lay within 11 to 100 nM.

Turning to `CN1C[C@@H]2C[C@]2(c2ccc(-c3cc(-c4ccc5c(=O)[nH]cc(F)c5c4)c(N)nc3F)cc2)C1` [I-470, 6-(2-amino-6-fluoro-5-(4-((1S,5R)-3-methyl-3-azabicyclo[3.1.0]hexan-1-yl)phenyl)pyridin-3-yl)-4-fluoroisoquinolin-1(2H)-one], the 50% inhibitory concentration (IC50) is 0.1 to 10 nM.

Regarding `Nc1nc(F)c(-c2ccc(N3CCOCC3)c(CN3CCCCC3)c2)cc1-c1ccc2c(c1)CCNC2=O` [I-559, 6-(2-amino-6-fluoro-5-(4-morpholino-3-(piperidin-1-ylmethyl)phenyl)pyridin-3-yl)-3,4-dihydroisoquinolin-1(2H)-one], the half-maximal inhibitory concentration (IC50) was 11 to 100 nM.

With `CC(C)N1CCN(c2ccc(-c3cc(-c4ccc5c(=O)[nH]c(N)nc5c4)c(N)nc3F)cc2)CC1` [I-422, 2-amino-7-(2-amino-6-fluoro-5-(4-(4-isopropylpiperazin-1-yl)phenyl)pyridin-3-yl)quinazolin-4(3H)-one], the IC50 lay in the range of 0.1 to 10 nM.

As to `COC1CCN(Cc2cc(-c3cc(-c4ccc5c(c4)CCNC5=O)c(N)nc3F)ccc2N2CCOCC2)C1` (stereo not drawn) [I-542, 6-(2-amino-6-fluoro-5-(3-((3-methoxypyrrolidin-1-yl)methyl)-4-morpholinophenyl)pyridin-3-yl)-3,4-dihydroisoquinolin-1(2H)-one], the IC50 was 11 to 100 nM.

Take `Cc1nc2cc(-c3cc(-c4ccc(C5CCOCC5)c(CN(C)C)c4)c(F)nc3N)cc(F)c2c(=O)[nH]1` [I-490, 7-(2-amino-5-(3-((dimethylamino)methyl)-4-(tetrahydro-2H-pyran-4-yl)phenyl)-6-fluoropyridin-3-yl)-5-fluoro-2-methylquinazolin-4(3H)-one]: the IC50 was in the range of 11 to 100 nM.

On to `COC1CCN(Cc2cc(-c3cc(-c4ccc5c(c4)CCNC5=O)c(N)nc3F)ccc2N2CCOCC2)CC1` [I-510, 6-(2-amino-6-fluoro-5-(3-((4-methoxypiperidin-1-yl)methyl)-4-morpholinophenyl)pyridin-3-yl)-3,4-dihydroisoquinolin-1(2H)-one], for which the IC50 is 11 to 100 nM.

`CC(C)N(C)Cc1cc(-c2cc(-c3ccc4c(c3)CCNC4=O)c(N)nc2F)ccc1N1CCOCC1` [I-614, 6-(2-amino-6-fluoro-5-(3-((isopropyl(methyl)amino)methyl)-4-morpholinoophenyl)pyridin-3-yl)-3,4-dihydroisoquinolin-1(2H)-one]: the IC50 was 11 to 100 nM.

As for `CN(C)Cc1cc(-c2cc(-c3cc4c(F)c[nH]c(=O)c4cc3F)c(N)nc2F)ccc1N1CCOCC1` [I-561, 6-(2-amino-5-(3-((dimethylamino)methyl)-4-morpholinophenyl)-6-fluoropyridin-3-yl)-4,7-difluoroisoquinolin-1(2H)-one], the IC50 is 0.1 to 10 nM.

Regarding `Cc1cc2cc(-c3cc(-c4ccc(N5CCN(CCCC(F)F)CC5)cc4)c(F)nc3N)cc(F)c2c(=O)[nH]1` [I-567, 6-(2-amino-5-(4-(4-(4,4-difluorobutyl)piperazin-1-yl)phenyl)-6-fluoropyridin-3-yl)-8-fluoro-3-methylisoquinolin-1(2H)-one], the IC50 was 0.1 to 10 nM.

Take `Nc1nc(F)c(-c2ccc(C3CCOCC3)c(CN3CCCC3)c2)cc1-c1cc2c(cc1F)C(=O)NCC2` [I-558, 6-(2-amino-6-fluoro-5-(3-(pyrrolidin-1-ylmethyl)-4-(tetrahydro-2H-pyran-4-yl)phenyl)pyridin-3-yl)-7-fluoro-3,4-dihydroisoquinolin-1(2H)-one]: the IC50 fell in the range of 11 to 100 nM.

`COc1ccc(-c2cc(-c3cc4c(cc3F)C(=O)NCC4)c(N)nc2F)cc1CN1CC(OC)C1` [I-517, 6-(2-amino-6-fluoro-5-(4-methoxy-3-((3-methoxyazetidin-1-yl)methyl)phenyl)pyridin-3-yl)-7-fluoro-3,4-dihydroisoquinolin-1(2H)-one]: the IC50 lay in the range of 11 to 100 nM.

Consider `CC(C)N1CCN(c2ccc(-c3cc(-c4cc(F)c5c(c4)OCCNC5=O)c(N)nc3F)cc2)CC1` [I-636, 8-(2-amino-6-fluoro-5-(4-(4-isopropylpiperazin-1-yl)phenyl)pyridin-3-yl)-6-fluoro-3,4-dihydrobenzo[f][1,4]oxazepin-5(2H)-one], for which the IC50 is 0.1 to 10 nM.

Take `CN(C)Cc1cc(-c2cc(-c3cc4c(cc3F)C(=O)NCC4)c(N)nc2F)ccc1OCC1CCOCC1` [I-533, 6-(2-amino-5-(3-((dimethylamino)methyl)-4-((tetrahydro-2H-pyran-4-yl)methoxy)phenyl)-6-fluoropyridin-3-yl)-7-fluoro-3,4-dihydroisoquinolin-1(2H)-one]: the IC50 was in the range of 0.1 to 10 nM.

Take `CN(C)Cc1cc(-c2cc(-c3cc4c(cc3F)C(=O)NCC4)c(N)nc2F)ccc1N1CCN(C2CCC2)CC1` [I-462, 6-(2-amino-5-(4-(4-cyclobutylpiperazin-1-yl)-3-((dimethylamino)methyl)phenyl)-6-fluoropyridin-3-yl)-7-fluoro-3,4-dihydroisoquinolin-1(2H)-one]: the IC50 is 0.1 to 10 nM.

`CN(C)Cc1cc(-c2cc(-c3cc4c(cc3F)C(=O)NCC4)c(N)nc2F)ccc1OC1CCOCC1` [I-531, 6-(2-amino-5-(3-((dimethylamino)methyl)-4-((tetrahydro-2H-pyran-4-yl)oxy)phenyl)-6-fluoropyridin-3-yl)-7-fluoro-3,4-dihydroisoquinolin-1(2H)-one]: the IC50 was 11 to 100 nM.

For the compound `COC1CCN(Cc2cc(-c3cc(-c4ccc5c(c4)CCNC5=O)c(N)nc3F)ccc2OCC2CC2)CC1` [I-508, 6-(2-amino-5-(4-(cyclopropylmethoxy)-3-((4-methoxypiperidin-1-yl)methyl)phenyl)-6-fluoropyridin-3-yl)-3,4-dihydroisoquinolin-1(2H)-one], the IC50 lay within 11 to 100 nM.

For the compound `COC1CN(Cc2cc(-c3cc(-c4cc5c(cc4F)C(=O)NCC5)c(N)nc3F)ccc2N2CCOCC2)C1` [I-523, 6-(2-amino-6-fluoro-5-(3-((3-methoxyazetidin-1-yl)methyl)-4-morpholinophenyl)pyridin-3-yl)-7-fluoro-3,4-dihydroisoquinolin-1(2H)-one], the IC50 was 11 to 100 nM.

`CN(C)Cc1cc(-c2cc(-c3ccc4c(c3)CCNC4=O)c(N)nc2F)ccc1N1CCN(C(=O)OC(C)(C)C)CC1` [I-442, tert-butyl 4-(4-(6-amino-2-fluoro-5-(1-oxo-1,2,3,4-tetrahydroisoquinolin-6-yl)pyridin-3-yl)-2-((dimethylamino)methyl)phenyl)piperazine-1-carboxylate]: the half-maximal inhibitory concentration (IC50) lay within 0.1 to 10 nM.
